According to patent publication US20160075653A1, “NEMATICIDAL N-(PHENYLCYCLOALKYL)CARBOXAMIDES AND N-(PHENYLCYCLOALKYL)THIOCARBOXAMIDES” (BAYER CROPSCIENCE AKTIENGESELLSCHAFT, priority 2013, published 2016):
Where two headings read alike, the source gives them in different places.

Columns and labels:
[1] = Measurement of log P values by HPLC on reversed phase columns (methods [a] pH 2.3, [b] pH 2.7, [c] pH 7.8); type: physicochemical; conditions: for chromatographic logP: reversed phase HPLC columns
Summary of the method: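 Retention times were converted to log P by linear interpolation between linear alkan-2-one standards (3 to 16 carbons) of known log P. Eluents, each with 10% to 95% acetonitrile gradient: phosphoric acid 0.1% at pH 2.3 [a]; formic acid 0.1% at pH 2.7, LC-MS [b]; ammonium hydrogen carbonate 0.001 molar at pH 7.8, LC-MS [c].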

Meloidogyne incognita = Meloidogyne incognita test (MELGIN), gall formation on salad seedlings; type: in vivo; conditions: application rate 20 ppm, after 14 days
Protocol: Meioidovnve incomita—Test (MELGIN)
Solvent: 125.0 parts by weight of acetone
To produce a suitable preparation of active compound, 1 part by weight of active compound is mixed with the stated amount of solvent, and the concentrate is diluted with water to the desired concentration.
Vessels are filled with sand, a solution of the active ingredient, a suspension containing eggs and larvae of the southern root-knot nematode (Meloidogyne incognita) and salad seeds. The salad seeds germinate and the seedlings grow. Galls develop in the roots.
After 14 days the nematicidal activity is determined on the basis of the percentage of gall formation. 100% means that no galls were found; 0% means the number of galls found on the roots of the treated plants was equal to that in untreated control plants.

[2] = HPLC on reversed phase columns, method [b], pH 2.7
[3] = HPLC reversed phase, method [b] (pH 2.7)
[4] = pH 2.7, HPLC on reversed phase columns, method [b] (pH 2.7), read-out: logP

Row | SMILES | nematicidal activity (percentage of gall formation; 100% = no galls) (Meloidogyne incognita) | logP [1, 3] | chromatographic logP [1, 4] | further results
1 | CSc1ccccc1C(=O)N[C@@H]1CCC[C@@H]1c1ccc(F)c(F)c1 (relative stereo) [Compound 82] | 90% |  |  | logP [1, 2]: 3.35^[b]
2 | CCCOc1ccccc1C(=O)N[C@@H]1CCC[C@@H]1c1ccc(F)c(F)c1 (relative stereo) [Compound 86] | 90% |  |  | logP [1, 2]: 4.19^[b]
3 | CCOc1ccccc1C(=O)N[C@@H]1CCC[C@@H]1c1ccc(F)c(F)c1 (relative stereo) [Compound 115] | 90% |  |  | logP [1, 2]: 3.80^[b]
4 | O=C(N[C@@H]1CC[C@@H]1c1ccccc1Cl)c1ncccc1Cl (relative stereo) [Compound 247, cis-3-chloro-N-[2-(2-chlorophenyl)cyclobutyl]pyridine-2-carboxamide] | 100% |  |  | chromatographic logP ([1]; HPLC-MS, method letter not given, read-out: log P): 2.79; chromatographic logP ([1]; pH 2.7, HPLC reversed phase, method [b] (pH 2.7), read-out: logP): 2.79
5 | O=C(N[C@@H]1CC[C@@H]1c1ccccc1Cl)c1ccccc1Cl (relative stereo) [Compound 248] | 90% | 3.08^[b] |  | 
6 | O=C(N[C@@H]1CC[C@@H]1c1ccccc1Cl)c1ccccc1I (relative stereo) [Compound 250] | 100% | 3.23^[b] |  | 
7 | O=C(N[C@@H]1CC[C@@H]1c1ccccc1Cl)c1ccccc1C(F)(F)F (relative stereo) [Compound 251] | 100% | 3.23^[b] |  | 
8 | O=C(N[C@@H]1CC[C@@H]1c1ccccc1Cl)c1c(F)cccc1F (relative stereo) [Compound 252] | 100% | 2.86^[b] |  | 
9 | O=C(N[C@@H]1CC[C@@H]1c1ccccc1Cl)c1ccccc1Br (relative stereo) [Compound 253] | 100% | 3.18^[b] |  | 
10 | O=C(N[C@@H]1CC[C@@H]1c1ccccc1Cl)c1cccnc1C(F)(F)F (relative stereo) [Compound 254] | 90% | 2.69^[b] |  | 
11 | O=C(N[C@@H]1CC[C@H]1c1ccc(Cl)cc1Cl)c1ccccc1Cl (relative stereo) [Compound 256] | 90% | 3.90^[b] |  | 
12 | O=C(N[C@@H]1CC[C@@H]1c1ccc(Cl)cc1Cl)c1ncccc1Cl (relative stereo) [Compound 260] | 100% | 3.28^[b] |  | 
13 | O=C(N[C@@H]1CC[C@@H]1c1ccc(Cl)cc1Cl)c1ccccc1Cl (relative stereo) [Compound 261] | 100% | 3.45^[b] |  | 
14 | O=C(N[C@@H]1CC[C@H]1c1ccc(F)cc1C(F)(F)F)c1cccnc1C(F)(F)F (relative stereo) [Compound 487] | 90% | 3.20^[b] |  | 
15 | O=C(N[C@@H]1CC[C@@H]1c1ccc(F)cc1C(F)(F)F)c1cccnc1C(F)(F)F (relative stereo) [Compound 489] | 100% | 3.02^[b] |  | 
16 | O=C(N[C@@H]1CC[C@@H]1c1ccc(F)cc1C(F)(F)F)c1ccccc1Br (relative stereo) [Compound 491] | 100% | 3.39^[b] |  | 
17 | O=C(N[C@@H]1CC[C@@H]1c1ccc(F)cc1C(F)(F)F)c1c(F)cccc1F (relative stereo) [Compound 493] | 100% | 3.18^[b] |  | 
18 | O=C(N[C@@H]1CC[C@H]1c1ccc(F)cc1C(F)(F)F)c1ccccc1C(F)(F)F (relative stereo) [Compound 494] | 90% | 3.72^[b] |  | 
19 | O=C(N[C@@H]1CC[C@@H]1c1ccc(F)cc1C(F)(F)F)c1ccccc1C(F)(F)F (relative stereo) [Compound 495] | 100% | 3.51^[b] |  | 
20 | O=C(N[C@@H]1CC[C@H]1c1ccc(F)cc1C(F)(F)F)c1ccccc1Br (relative stereo) [Compound 501] | 100% | 3.64^[b] |  | 
21 | O=C(N[C@@H]1CC[C@@H]1c1ccc(F)cc1C(F)(F)F)c1ccccc1I (relative stereo) [Compound 503] | 100% | 3.50^[b] |  | 
22 | O=C(N[C@@H]1CC[C@@H]1c1ccc(F)cc1C(F)(F)F)c1ccccc1 (relative stereo) [Compound 505] | 90% | 2.97^[b] |  | 
23 | O=C(N[C@@H]1CC[C@@H]1c1ccc(F)cc1C(F)(F)F)c1ccccc1Cl (relative stereo) [Compound 509] | 100% | 3.34^[b] |  | 
24 | O=C(N[C@@H]1CC[C@@H]1c1ccc(F)cc1C(F)(F)F)c1cccnc1Cl (relative stereo) [Compound 515] | 100% | 2.73^[b] |  | 
25 | O=C(N[C@@H]1CC[C@@H]1c1ccc(F)cc1C(F)(F)F)c1nccnc1Cl (relative stereo) [Compound 516] | 100% | 2.89^[b] |  | 
26 | O=C(N[C@@H]1CC[C@@H]1c1ccc(F)cc1C(F)(F)F)c1ccccc1[N+](=O)[O-] (relative stereo) [Compound 522] | 90% | 3.04^[b] |  | 
27 | O=C(N[C@@H]1CC[C@@H]1c1ccc(F)cc1C(F)(F)F)c1cccnc1 (relative stereo) [Compound 523] | 90% | 2.18^[b] |  | 

Row | SMILES | nematicidal activity (percentage of gall formation; 100% = no galls) (Meloidogyne incognita) | logP [1, 3] | chromatographic logP [1, 4] | further results
28 | O=C(N[C@@H]1CC[C@@H]1c1cc(F)ccc1C(F)(F)F)c1ccccc1Cl (relative stereo) [Compound 528] | 100% | 3.34^[b] |  | 
29 | O=C(NC1CC1c1ccccc1)c1cccnc1C(F)F (centres unmarked) [Compound 225] | 90% |  |  | 
30 | Cc1nc(C(F)(F)F)c(C(=O)NC2CCC2c2ccc(Cl)cc2C(F)(F)F)s1 (centres unmarked) [Example 730] |  |  |  | logP [1, 2]: 4.03^[b]
31 | Cc1nc(C(F)(F)F)c(C(=O)NC2CCC2c2ccc(Cl)cc2C(F)(F)F)s1 (centres unmarked) [Example 731] |  |  |  | logP [1, 2]: 3.75^[b]
32 | O=C(N[C@@H]1CC[C@H]1c1ccc(Cl)cc1C(F)(F)F)c1cccnc1 [Example 732] |  |  | 2.74 | 
33 | O=C(N[C@@H]1CC[C@@H]1c1c(Cl)cccc1Cl)c1ccccc1[N+](=O)[O-] [Example 733] |  |  | 3.08 | 
34 | O=C(N[C@@H]1CC[C@@H]1c1c(Cl)cccc1Cl)c1nccnc1Cl [Example 734] |  |  | 3.07 | 
35 | O=C(N[C@@H]1CC[C@@H]1c1c(Cl)cccc1Cl)c1ccccc1Br [Example 735] |  |  | 3.6 | 
36 | O=C(N[C@@H]1CC[C@@H]1c1c(Cl)cccc1Cl)c1ccccc1C(F)(F)F [Example 736] |  |  | 3.71 | 
37 | O=C(N[C@@H]1CC[C@@H]1c1c(Cl)cccc1Cl)c1ccccc1I [Example 737] |  |  | 3.72 | 
38 | O=C(N[C@@H]1CC[C@@H]1c1c(Cl)cccc1Cl)c1ccc(Cl)cc1 [Example 738] |  |  | 3.36 | 
39 | O=C(N[C@@H]1CC[C@@H]1c1ccc(Cl)cc1C(F)(F)F)c1cccnc1Cl [Example 739] |  |  | 3.09 | 
40 | Cc1nc(C(F)(F)F)c(C(=O)N[C@@H]2CC[C@@H]2c2c(Cl)cccc2Cl)s1 [Example 740] |  |  | 3.6 | 
41 | O=C(N[C@@H]1CC[C@@H]1c1c(Cl)cccc1Cl)c1ccc(Cl)cc1Cl [Example 741] |  |  | 4.1 | 
42 | O=C(N[C@@H]1CC[C@@H]1c1c(Cl)cccc1Cl)c1ccccc1Cl [Example 742] |  |  | 3.56 | 
43 | O=C(N[C@@H]1CC[C@@H]1c1c(Cl)cccc1Cl)c1ncccc1Cl [Example 743] |  |  | 3.32 | 
44 | O=C(N[C@@H]1CC[C@@H]1c1c(Cl)cccc1Cl)c1ncc(C(F)(F)F)cc1Cl [Example 744] |  |  | 4.28 | 
45 | O=C(N[C@@H]1CC[C@@H]1c1c(Cl)cccc1Cl)c1sccc1I [Example 745] |  |  | 4.21 | 
46 | O=C(N[C@@H]1CC[C@@H]1c1c(Cl)cccc1Cl)c1cccnc1C(F)(F)F [Example 746] |  |  | 2.95 | 
47 | Cc1nc(C(F)(F)F)c(C(=O)N[C@@H]2CCC[C@@H]2c2ccc(C(F)(F)F)cc2)s1 [Example 747] |  |  | 3.71 | 
48 | O=C(N[C@@H]1CCC[C@@H]1c1ccc(C(F)(F)F)cc1)c1nccnc1Cl [Example 748] |  |  | 3.2 | 
49 | O=C(N[C@@H]1C[C@]1(F)c1ccc(Cl)cc1)c1sccc1I [Example 749] |  |  | 3.15 | 
50 | O=C(N[C@@H]1C[C@]1(F)c1ccc(Cl)cc1)c1ccccc1Br [Example 751] |  |  | 2.84 | 
51 | O=C(N[C@@H]1C[C@]1(F)c1ccc(Cl)cc1)c1ccccc1Cl [Example 752] |  |  | 2.78 | 
52 | O=C(N[C@@H]1C[C@]1(F)c1ccc(Cl)cc1)c1ccccc1I [Example 753] |  |  | 2.98 | 
53 | O=C(NC1CC1(F)c1ccc(Cl)cc1)c1ccccc1C(F)(F)F (centres unmarked) [Example 754] |  |  |  | logP [1, 2]: 3.24^[b]
54 | O=C(NC1CC1(F)c1ccc(Cl)cc1)c1ccccc1C(F)(F)F (centres unmarked) [Example 755] |  |  |  | logP [1, 2]: 3.03^[b]
